Reference: PMC9095466 (Nature, 2022)
“And” between values parts separate entries of the source, which are not always exact repeats. Identical values can stand only once.

What was measured:
human TMPRSS2 = human TMPRSS2 (Homo sapiens, UniProt O15393); test: cell-based
[1] = test system: SARS-CoV-2 B.1.617.2 (Delta); set-up: species or system K18-hACE2 mice; conditions: mouse, in vivo
human cathepsin L = molecular target: T1, human cathepsin L (Homo sapiens, UniProt P07711); test: Protease selectivity, Ki on protease; type: biochemical; conditions: mean ± s.d., max concentration 10 µM; read-out: Ki Cathepsin L
T1 construct: purchased Bio-Techne
T1 sequence (P07711 114-333): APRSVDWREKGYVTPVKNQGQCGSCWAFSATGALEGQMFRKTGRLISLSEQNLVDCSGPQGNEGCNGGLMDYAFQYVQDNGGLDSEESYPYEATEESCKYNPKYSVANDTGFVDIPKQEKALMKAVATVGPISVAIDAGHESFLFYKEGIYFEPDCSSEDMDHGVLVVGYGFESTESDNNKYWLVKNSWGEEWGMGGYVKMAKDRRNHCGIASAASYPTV

[2] = test system: SARS-CoV-2 B.1.351 (Beta); test: microbe, parasite or virus in culture; type: cell-based; conditions: SA
Recombinant human furin = molecular target: T2, Recombinant human furin (Homo sapiens, UniProt P09958); test: Protease selectivity, Ki on recombinant protease; type: biochemical; conditions: mean ± s.d., max concentration 10 µM; read-out: Ki Furin
T2 construct: purchased Bio-Techne
T2 sequence (P09958 108-794): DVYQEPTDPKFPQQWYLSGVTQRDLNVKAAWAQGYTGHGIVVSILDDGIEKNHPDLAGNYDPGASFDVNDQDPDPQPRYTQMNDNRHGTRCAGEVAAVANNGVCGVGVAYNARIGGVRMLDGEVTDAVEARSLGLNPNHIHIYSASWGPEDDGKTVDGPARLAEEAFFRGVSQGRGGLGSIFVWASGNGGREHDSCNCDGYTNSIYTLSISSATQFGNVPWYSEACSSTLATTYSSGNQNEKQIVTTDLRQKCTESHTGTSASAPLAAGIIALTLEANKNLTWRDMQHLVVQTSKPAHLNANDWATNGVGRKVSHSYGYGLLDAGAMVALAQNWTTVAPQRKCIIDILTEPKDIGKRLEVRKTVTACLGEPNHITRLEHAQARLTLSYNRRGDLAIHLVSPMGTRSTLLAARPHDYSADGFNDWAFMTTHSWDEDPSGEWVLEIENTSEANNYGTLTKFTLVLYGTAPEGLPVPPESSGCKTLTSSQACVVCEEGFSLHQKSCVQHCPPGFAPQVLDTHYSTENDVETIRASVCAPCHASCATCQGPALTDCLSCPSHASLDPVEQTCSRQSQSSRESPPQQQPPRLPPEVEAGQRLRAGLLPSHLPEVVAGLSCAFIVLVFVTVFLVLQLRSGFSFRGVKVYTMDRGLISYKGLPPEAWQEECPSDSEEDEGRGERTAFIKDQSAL

Recombinant human DESC1 = molecular target: T3, Recombinant human DESC1 (Homo sapiens, UniProt Q9UL52); test: Protease selectivity, Ki on recombinant protease; type: biochemical; conditions: mean ± s.d., max concentration 10 µM; read-out: Ki DESC1
T3 construct: made in house
T3 sequence (Q9UL52 1-423): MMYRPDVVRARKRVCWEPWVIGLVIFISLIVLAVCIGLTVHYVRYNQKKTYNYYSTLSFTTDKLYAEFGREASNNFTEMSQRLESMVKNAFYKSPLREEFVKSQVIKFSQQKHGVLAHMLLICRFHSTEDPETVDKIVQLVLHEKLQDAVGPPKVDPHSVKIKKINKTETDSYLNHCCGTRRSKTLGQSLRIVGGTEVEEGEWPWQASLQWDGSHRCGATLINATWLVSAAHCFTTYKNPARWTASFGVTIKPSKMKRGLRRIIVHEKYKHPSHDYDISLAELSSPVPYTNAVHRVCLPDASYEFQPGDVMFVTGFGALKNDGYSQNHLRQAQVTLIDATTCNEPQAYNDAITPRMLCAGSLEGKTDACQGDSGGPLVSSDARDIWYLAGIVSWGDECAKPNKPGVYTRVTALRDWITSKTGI

[3] = test system: SARS-CoV-2 lineage B strain (VIDO); test: microbe, parasite or virus in culture; type: cell-based
[4] = Cytotoxicity CC50 in Calu-3 lung epithelial cells; type: cell-based, human; conditions: human; Calu-3 lung epithelial cells, n = 2; read-out: CC50 in Calu-3 cells

Chain of human TMPRSS2 (O15393 whole entry): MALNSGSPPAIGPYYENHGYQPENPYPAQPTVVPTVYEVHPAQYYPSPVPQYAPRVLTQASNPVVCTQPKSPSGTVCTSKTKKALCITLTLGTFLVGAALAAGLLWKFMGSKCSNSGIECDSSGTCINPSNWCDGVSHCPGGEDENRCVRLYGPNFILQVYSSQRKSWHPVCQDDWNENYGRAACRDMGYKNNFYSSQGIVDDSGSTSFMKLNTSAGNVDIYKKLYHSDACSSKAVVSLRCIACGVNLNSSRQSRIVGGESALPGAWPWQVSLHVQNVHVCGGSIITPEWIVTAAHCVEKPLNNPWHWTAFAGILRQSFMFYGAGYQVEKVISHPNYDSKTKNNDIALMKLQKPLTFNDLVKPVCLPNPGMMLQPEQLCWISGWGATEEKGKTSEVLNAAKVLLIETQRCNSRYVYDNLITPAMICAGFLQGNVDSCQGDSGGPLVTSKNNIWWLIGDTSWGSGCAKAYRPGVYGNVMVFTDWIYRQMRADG

**Q.** Which results are given for `CS(=O)(=O)NC(CCC(N)=O)C(=O)NC(Cc1ccccc1)C(=O)NC(CCCNC(=N)N)C(=O)c1nc2ccccc2s1` (centres unmarked) [Compound N-0385, Ms-QFR-kbt]?
**A.** TMPRSS2 activity (%) (human TMPRSS2; Figure 1B, single experiments N1-N3): 12.847% and 18.5887% and 21.0267%; inhibition at 0.01 µM (human TMPRSS2; Vero C1008, 10 nM compound, 24 h, vs untreated/vehicle TMPRSS2-expressing Vero E6 cells, read-out: inhibition of TMPRSS2 activity (reduction of substrate proteolysis)): 83%; weight gain (six days after infection) [1]: 2%; weight loss (six days after infection) [1]: 5%; Ki (human cathepsin L): 6.29 ± 3.61 µM; infection, dose response Figure 3c (nucleocapsid) ([2]; log [C] (nM) 0.20412): 79.6793 and 91.7767 and 88.3707 and 72.9139 and 58.6745; infection, dose response Figure 3d (dsRNA) ([2]; log [C] (nM) 0.20412): 63.8002 and 67.3054 and 60.7262 and 87.9301 and 97.1304; infection, dose response Figure 3c (nucleocapsid) ([2]; log [C] (nM) 0.90309): 43.2222 and 77.2087 and 78.2089 and 72.2128 and 63.0729; infection, dose response Figure 3d (dsRNA) ([2]; log [C] (nM) 0.90309): 54.6567 and 62.1742 and 66.7756 and 99.2713 and 89.1898; infection, dose response Figure 3c (nucleocapsid) ([2]; log [C] (nM) 1.60206): 26.0524 and 35.9809 and 32.5888 and 37.5917 and 24.568; infection, dose response Figure 3d (dsRNA) ([2]; log [C] (nM) 1.60206): 39.7311 and 51.7136 and 44.1381 and 59.5864 and 41.1574; infection, dose response Figure 3c (nucleocapsid) ([2]; log [C] (nM) -0.49485): 80.9236 and 100 and 89.9432 and 52.6441; infection, dose response Figure 3d (dsRNA) ([2]; log [C] (nM) -0.49485): 76.5319 and 75.7767 and 69.4582 and 92.7897 and 93.6397; infection, dose response Figure 3c (nucleocapsid) ([2]; log [C] (nM) -1.19382): 96.6594 and 91.8391 and 98.1873 and 70.3455; infection, dose response Figure 3d (dsRNA) ([2]; log [C] (nM) -1.19382): 75.3943 and 74.8717 and 100 and 96.2799; Ki (Recombinant human furin): > 10 µM; Ki (Recombinant human DESC1): 0.0266 ± 0.0088 µM; Nucleocapsid ([3]; Figure 2a, two replicates, DMSO control about 91-94): 1.14 and 1.542; dsRNA ([3]; Figure 2a, two replicates, DMSO control about 93-95): 2.011 and 2.808; EC50 ([3]; Severe acute respiratory syndrome coronavirus 2, Calu-3, read-out: SARS-CoV-2 VIDO Nucleocapsid EC50 ± SE): 0.0028 ± 0.0014 µM; inhibition at 0.1 µM ([3]; Severe acute respiratory syndrome coronavirus 2, Calu-3, read-out: inhibition of SARS-CoV-2 infection): > 99%; Figure 2b dose-response, Mean ([3]; log [C] (nM) 0.20412): 56.2346; Figure 2b dose-response, Mean ([3]; log [C] (nM) 0.90309): 18.4653; Figure 2b dose-response, Mean ([3]; log [C] (nM) 1.60206): 7.161; Figure 2b dose-response, Mean ([3]; log [C] (nM) 2.30103): 5.446; Figure 2b dose-response, Mean ([3]; log [C] (nM) 3): 1.469; Figure 2b dose-response, Mean ([3]; log [C] (nM) -0.49485): 74.438; Figure 2b dose-response, Mean ([3]; log [C] (nM) -1.19382): 85.6866; CC50 at 24 h [4]: 3470 µM
